Data from the supplement of paper PMC10307832.

Columns and labels:
Assay in all cases: relative viability (nuclei count vs DMSO), 5 days (fraction); higher = more cells survive
[1] = compound: CC1=CC(=CC=C1)NC2=NC(=CS2)C3=CC=NC=C3 + CC(=O)c1c(C)c2cnc(Nc3ccc(N4CCNCC4)cn3)nc2n(C2CCCC2)c1=O [Palbociclib] (partner 0.5 µM)
Procedure, shortened: (§1)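 Relative viability is defined as nuclei in treated wells over nuclei in vehicle wells. Duplicate plates were run and medians reported. Lung cancer cell lines in 1536-well plates were dosed by pin tool one day after seeding, with one drug or with a fixed anchor-drug dose plus five library-drug doses (not always all listed) in √10 steps, and nuclei were counted after 5 days.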

Masitinib + Palbociclib = compound: Cc1ccc(NC(=O)c2ccc(CN3CCN(C)CC3)cc2)cc1Nc1nc(-c2cccnc2)cs1 [Masitinib] + CC(=O)c1c(C)c2cnc(Nc3ccc(N4CCNCC4)cn3)nc2n(C2CCCC2)c1=O [Palbociclib] (partner 0.5 µM)
Procedure, shortened: as §1

Masitinib + Pictilisib = compound: Cc1ccc(NC(=O)c2ccc(CN3CCN(C)CC3)cc2)cc1Nc1nc(-c2cccnc2)cs1 [Masitinib] + CS(=O)(=O)N1CCN(Cc2cc3nc(-c4cccc5[nH]ncc45)nc(N4CCOCC4)c3s2)CC1 [Pictilisib] (partner 1 µM)
Procedure, shortened: as §1

Masitinib + Olaparib = compound: Cc1ccc(NC(=O)c2ccc(CN3CCN(C)CC3)cc2)cc1Nc1nc(-c2cccnc2)cs1 [Masitinib] + O=C(c1cc(Cc2n[nH]c(=O)c3ccccc23)ccc1F)N1CCN(C(=O)C2CC2)CC1 [Olaparib] (partner 8 µM)
Procedure, shortened: as §1

Row | Cell Line | relative viability ([1]; first compound 0.08 µM) | relative viability ([1]; first compound 0.253 µM) | relative viability ([1]; first compound 0.8 µM) | relative viability ([1]; first compound 2.53 µM) | relative viability ([1]; first compound 8 µM) | relative viability (Masitinib + Palbociclib; first compound 0.01 µM) | relative viability (Masitinib + Palbociclib; first compound 0.03162 µM) | relative viability (Masitinib + Palbociclib; first compound 0.1 µM) | relative viability (Masitinib + Palbociclib; first compound 0.3162 µM) | relative viability (Masitinib + Palbociclib; first compound 1 µM) | relative viability (Masitinib + Pictilisib; first compound 0.01 µM) | relative viability (Masitinib + Pictilisib; first compound 0.03162 µM) | relative viability (Masitinib + Pictilisib; first compound 0.1 µM) | relative viability (Masitinib + Pictilisib; first compound 0.3162 µM) | relative viability (Masitinib + Pictilisib; first compound 1 µM) | relative viability (Masitinib + Olaparib; first compound 0.01 µM) | relative viability (Masitinib + Olaparib; first compound 0.03162 µM) | relative viability (Masitinib + Olaparib; first compound 0.1 µM) | relative viability (Masitinib + Olaparib; first compound 0.3162 µM) | relative viability (Masitinib + Olaparib; first compound 1 µM)
1 | 201T | 0.401 | 0.319 | 0.359 | 0.348 | 0.336 | 0.326 | 0.386 | 0.364 | 0.369 | 0.375 | 0.642 | 0.623 | 0.646 | 0.556 | 0.639 | 0.702 | 0.901 | 0.765 | 0.721 | 0.806
2 | A549 |  |  |  |  |  |  |  |  |  |  | 0.459 | 0.48 | 0.478 | 0.576 | 0.566 | 0.363 | 0.184 | 0.338 | 0.301 | 0.325
3 | A-427 | 0.473 | 0.531 | 0.485 | 0.538 | 0.5 | 0.453 | 0.557 | 0.548 | 0.525 | 0.488 |  | 0.55 |  | 0.687 | 0.601 | 0.621 | 0.711 | 0.654 | 0.489 | 0.663
4 | ABC-1 | 0.627 |  | 0.944 | 0.795 | 0.473 | 0.699 | 0.855 | 0.784 | 0.598 | 0.661 | 0.686 | 0.623 | 0.977 | 0.652 | 0.61 | 0.727 | 1.39 | 0.844 | 0.67 | 0.78
5 | BEN | 0.457 | 0.521 | 0.424 | 0.489 | 0.482 | 0.42 | 0.431 | 0.51 | 0.513 | 0.46 | 0.638 | 0.51 | 0.71 | 0.555 | 0.627 | 1.21 | 1.1 | 1.4 | 1.23 | 1.08
6 | CAL-12T | 0.402 | 0.414 | 0.391 | 0.329 | 0.586 | 0.445 | 0.333 | 0.455 | 0.305 | 0.502 | 0.519 | 0.377 | 0.694 | 0.392 | 0.293 | 0.716 | 0.696 | 0.688 | 0.712 | 0.708
7 | COR-L23 | 0.256 | 0.251 | 0.232 | 0.279 | 0.303 | 0.296 | 0.257 | 0.298 | 0.329 | 0.279 | 0.751 | 0.749 | 0.844 | 0.932 | 0.893 | 0.35 | 0.329 | 0.361 | 0.309 | 0.27
8 | COR-L 105 | 0.353 | 0.45 | 0.391 | 0.421 | 0.33 | 0.422 | 0.394 | 0.435 | 0.382 | 0.348 | 0.396 | 0.356 | 0.395 | 0.412 | 0.428 | 0.655 | 0.532 | 0.689 | 0.494 | 0.498
9 | Calu-6 |  |  |  |  |  |  |  |  |  |  | 0.905 | 0.857 | 1.06 | 0.988 | 0.861 | 0.53 | 0.656 | 0.63 | 0.563 | 0.547
10 | ChaGo-K-1 | 0.9 | 0.961 | 0.946 | 0.943 | 0.859 | 0.954 | 0.952 | 0.966 | 0.972 | 0.897 | 0.929 | 0.466 | 0.929 | 0.823 | 0.598 | 0.39 | 0.435 | 0.405 | 0.35 | 0.392
11 | EBC-1 |  |  |  |  |  |  |  |  |  |  | 0.348 | 0.357 | 0.427 | 0.309 | 0.413 | 0.679 | 0.673 | 0.814 | 0.713 | 0.615
12 | EKVX | 0.36 | 0.384 |  | 0.39 | 0.268 | 0.35 | 0.333 | 0.343 |  | 0.295 |  | 0.364 | 0.463 | 0.275 | 0.412 | 0.653 | 0.704 | 0.766 |  | 0.744
13 | EMC-BAC-2 | 0.495 | 0.496 | 0.526 | 0.504 | 0.454 | 0.434 | 0.473 | 0.509 | 0.524 | 0.51 | 0.553 | 0.518 | 0.58 | 0.552 | 0.503 | 0.457 | 0.484 | 0.481 | 0.416 | 0.456
14 | EPLC-272H | 0.309 | 0.315 | 0.372 |  | 0.332 | 0.299 | 0.331 | 0.327 | 0.295 | 0.329 | 0.29 | 0.304 | 0.319 | 0.284 | 0.293 | 0.927 |  | 0.866 | 0.655 | 0.768
15 | H3255 | 0.358 | 0.332 | 0.363 | 0.306 | 0.318 | 0.294 | 0.35 | 0.299 | 0.321 | 0.326 | 0.489 | 0.501 | 0.542 | 0.456 | 0.407 | 0.474 | 0.566 | 0.513 | 0.545 | 0.555
16 | HARA | 0.238 | 0.237 | 0.196 | 0.222 | 0.324 | 0.271 |  | 0.244 | 0.254 | 0.254 | 0.389 | 0.331 | 0.448 | 0.372 | 0.412 | 0.749 | 0.507 | 1.15 |  | 1.13
17 | HCC-15 | 0.74 | 0.641 | 0.631 | 0.562 | 0.653 | 0.658 | 0.74 | 0.799 | 0.739 | 0.77 | 0.604 | 0.72 | 0.672 | 0.77 | 0.686 | 0.628 | 0.669 | 0.753 | 0.735 | 0.82
18 | HCC-44 | 0.912 | 0.779 | 0.851 | 0.874 | 0.805 | 0.973 | 0.95 | 0.985 | 0.863 | 0.962 | 0.633 | 0.436 | 0.59 | 0.509 | 0.543 | 0.939 | 0.968 | 0.979 | 0.916 | 0.963
